Reference: PMC9170688, “Gametocyte-specific and all-blood-stage transmission-blocking chemotypes discovered from high throughput screening on Plasmodium falciparum gametocytes” (Communications Biology, 2022)

Tested on: P. falciparum NF54 male gametocytes (stage V)
Experiment: Male gamete exflagellation assay
Type: cell-based, Plasmodium falciparum
Conditions: 1 µM
Method: The above selected 30 compounds were subjected to a phenotypic male gamete exflagellation assay. This assay measures the viability of male gametocytes by quantitating the final step of maturation into motile microgametes in vitro[24]. This process naturally occurs in the mosquito gut within minutes from the blood meal. The acquisition of time lapse videos of gamete motility in bright field microscopy and the subsequent analysis to count exflagellation centres were performed in an automated HTS format in 384-well plates. The compounds were tested in two independent biological replicates at the concentration of 1 µM. […] The results of this study led to the identification of 16 compounds with anti-exflagellation activity (Fig. 4). […] The standard membrane feeding assay (SMFA) is used to measure the parasite transmission through mosquito. In this assay, mature stage V gametocytes of the P. falciparum strain NF54-hsp70-luc were treated with 1 and 10 µM of the nine selected compounds for 24 h, added with human red blood cells and serum to achieve a haematocrit of 50% and then fed to mosquitoes. Luminescence was analyzed in […] 8 days post-feeding.
Asexual parasites of the NF54 line, kindly obtained from Elena Levashina’s laboratory (Max Plank Institute for Infection Biology, Berlin, Germany), were seeded at 1% total parasitemia and grown for 16 days changing medium every day until development of stage V gametocytes (about 1–2% of stage V gametocytemia). 100 µl of gametocyte culture was seeded in each well of a 96 well-plate and 100 µl of 2× concentration of compounds or DMSO as control were added to each well to achieve the desired final concentration. Assay plates were incubated for 48 h at 37 °C in 4% CO2, 3% O2, and 93% N2 modified atmosphere. After the incubation period, 100 µl of medium were removed from each well and the other 100 µl were transferred to a black imaging 96 well plate (ibidi) containing 100 µl of complete medium supplemented with 40 µM of xanthurenic acid. After 15 min, exflagellation events were captured by three ten-second videos each well with an Olympus IX83 inverted microscope with a UPLSAPO 10× N.A. 0.75 objective (Olympus, Japan), equipped with a Hamamatsu ORCA-Flash 4.0 V3 camera. Each video was analyzed using the Icy bio-image analysis software (http://icy.bioimageanalysis.org/) to count the number of exflagellation events.

In the case of `COc1cc(CNCC2CCNCC2)ccc1OCc1cccc(Cl)c1` [Compound 53], the “male gamete exflagellation reduced to” value is reported as 20–30%.

Same assay, conditions: 1 µM, 48 h, Replicate 1

In order of falling “Inhibition of male exflagellation at 1 µM” value:
1. COc1ccc(Nc2cc(C)nc(Nc3ccc(NC(=O)c4cc(C)cc(C)c4)cc3)n2)cc1 [Compound 64]  108.475
2. COc1ccccc1Cn1cc2c(-c3ccc(F)cc3)nnc-2c2cc(OC)c(OC)cc21 [Compound 31]  80.597
3. Cc1ccc(Nc2cc(C)nc(Nc3ccc(NC(=O)c4cc5ccccc5oc4=O)cc3)n2)cc1 [Compound 63]  62.7119
4. Clc1ccc(Nc2nc(-c3ccccn3)cs2)nc1 [Compound 39]  30.5085
5. Cc1ccc2nc(-c3ccccc3)c(CSc3cccc[n+]3[O-])n2c1 [Compound 16]  23.1
6. COc1cc(CNCC2CCNCC2)ccc1OCc1cccc(Cl)c1 [Compound 53]  19.2
7. OC(c1ccc(Cl)cc1)C1CCN(CCCN2CCC(C(O)c3ccc(Cl)cc3)CC2)CC1 (centres unmarked) [Compound 13]  15.4
8. COc1ccc(NC(=O)Nc2ccc(Nc3nc(C)cc(Nc4ccc(C)cc4)n3)cc2)cc1 [Compound 65]  5.085

Same assay, conditions: 1 µM, 48 h, Replicate 2

In order of falling “Inhibition of male exflagellation at 1 µM” value:
1. COc1ccc(Nc2cc(C)nc(Nc3ccc(NC(=O)c4cc(C)cc(C)c4)cc3)n2)cc1 [Compound 64]  123.2
2. COc1ccccc1Cn1cc2c(-c3ccc(F)cc3)nnc-2c2cc(OC)c(OC)cc21 [Compound 31]  111.628
3. Clc1ccc(Nc2nc(-c3ccccn3)cs2)nc1 [Compound 39]  73.2558
4. OC(c1ccc(Cl)cc1)C1CCN(CCCN2CCC(C(O)c3ccc(Cl)cc3)CC2)CC1 (centres unmarked) [Compound 13]  64.1
5. COc1ccc(NC(=O)Nc2ccc(Nc3nc(C)cc(Nc4ccc(C)cc4)n3)cc2)cc1 [Compound 65]  52.8
6. COc1cc(CNCC2CCNCC2)ccc1OCc1cccc(Cl)c1 [Compound 53]  35.9
7. Cc1ccc(Nc2cc(C)nc(Nc3ccc(NC(=O)c4cc5ccccc5oc4=O)cc3)n2)cc1 [Compound 63]  21.3333
8. Cc1ccc2nc(-c3ccccc3)c(CSc3cccc[n+]3[O-])n2c1 [Compound 16]  19.2

Same assay, conditions: Plasmodium falciparum, NF54, read-out: Exflagellation @ 1 uM (% of DMSO) 1

In order of falling activity at 1 µM:
1. COc1ccc(Nc2cc(C)nc(Nc3ccc(NC(=O)c4cc(C)cc(C)c4)cc3)n2)cc1 [Compound 64]  108%
2. COc1ccccc1Cn1cc2c(-c3ccc(F)cc3)nnc-2c2cc(OC)c(OC)cc21 [Compound 31]  80.6%
3. Cc1ccc(Nc2cc(C)nc(Nc3ccc(NC(=O)c4cc5ccccc5oc4=O)cc3)n2)cc1 [Compound 63]  62.7%
4. Clc1ccc(Nc2nc(-c3ccccn3)cs2)nc1 [Compound 39]  30.5%
5. Cc1ccc2nc(-c3ccccc3)c(CSc3cccc[n+]3[O-])n2c1 [Compound 16]  23.1%
6. COc1cc(CNCC2CCNCC2)ccc1OCc1cccc(Cl)c1 [Compound 53]  19.2%
7. O=C(c1ccc([N+](=O)[O-])o1)N1CCC(Cn2cnc3ccccc32)CC1 [Compound 69]  17.3%
8. OC(c1ccc(Cl)cc1)C1CCN(CCCN2CCC(C(O)c3ccc(Cl)cc3)CC2)CC1 (centres unmarked) [Compound 13]  15.4%
9. COc1ccc(NC(=O)Nc2ccc(Nc3nc(C)cc(Nc4ccc(C)cc4)n3)cc2)cc1 [Compound 65]  5.08%

Same assay, conditions: Plasmodium falciparum, NF54, read-out: Exflagellation @ 1 uM (% of DMSO) 2

In order of rising activity at 1 µM:
1. Cc1ccc2nc(-c3ccccc3)c(CSc3cccc[n+]3[O-])n2c1 [Compound 16]  19.2%
2. Cc1ccc(Nc2cc(C)nc(Nc3ccc(NC(=O)c4cc5ccccc5oc4=O)cc3)n2)cc1 [Compound 63]  21.3%
3. COc1cc(CNCC2CCNCC2)ccc1OCc1cccc(Cl)c1 [Compound 53]  35.9%
4. COc1ccc(NC(=O)Nc2ccc(Nc3nc(C)cc(Nc4ccc(C)cc4)n3)cc2)cc1 [Compound 65]  52.8%
5. O=C(c1ccc([N+](=O)[O-])o1)N1CCC(Cn2cnc3ccccc32)CC1 [Compound 69]  57.7%
6. OC(c1ccc(Cl)cc1)C1CCN(CCCN2CCC(C(O)c3ccc(Cl)cc3)CC2)CC1 (centres unmarked) [Compound 13]  64.1%
7. Clc1ccc(Nc2nc(-c3ccccn3)cs2)nc1 [Compound 39]  73.3%
8. COc1ccccc1Cn1cc2c(-c3ccc(F)cc3)nnc-2c2cc(OC)c(OC)cc21 [Compound 31]  112%
9. COc1ccc(Nc2cc(C)nc(Nc3ccc(NC(=O)c4cc(C)cc(C)c4)cc3)n2)cc1 [Compound 64]  123%

Tested on: P. falciparum NF54 hsp86-PpyRE13 asexual stages
Experiment: P. falciparum asexual stage assay (pLDH)
Type: cell-based, Plasmodium falciparum
Conditions: Plasmodium falciparum, NF54, read-out: NF54 Hsp86 PpYRE13 (IC50 nM)
Method: With the selected 84 compounds, the subsequent step aimed at determining the gametocyte inhibition potency and the parasite stage selectivity between the gametocytes and the asexual stages in the NF54 hsp86-PpyRE13. […] Similar data were obtained considering the gametocyte IC50 values measured in the NF54 pfs16-GFP-PyLUC strain (see Supplementary Data 2).
Parasite proliferation assays were performed in 384-well plates (Thermo, 4332, USA) with a starting parasitemia of 0.25% at a haematocrit of 2% by quantification of parasite lactate dehydrogenase (pLDH). Compounds or DMSO as control were pre dispensed on plates, from 10 mM DMSO stock solutions, via an acoustic droplet ejection device (ATS-100, EDC Biosystems) to achieve de final desired concentration. Assay plates were incubated for 72 h at 37 °C in 4% CO2, 3% O2, and 93% N2 modified atmosphere. After the incubation period, plates are frozen at −80 °C for two h and then thawed at room temperature for 2 h. Then, 50 µL of the developer solution (70 mM Tris-HCl pH 8.0, 0.5% Tween-20, 100 mM Lithium L-Lactate, 125 µM nitro blue tetrazolium, 2 U/ml diaphorase and 100 µM 3-Acetylpyridine Adenine Dinucleotide) are added to each well and let to react for 10 min. Absorbance was then read at 650 nm by a suitable spectrophotometer.

In order of rising IC50:
1. COc1ccc(Nc2cc(C)nc(Nc3ccc(NC(=O)c4cc(C)cc(C)c4)cc3)n2)cc1 [Compound 64]  437 nM
2. Clc1ccc(Nc2nc(-c3ccccn3)cs2)nc1 [Compound 39]  540 nM
3. COc1ccc(NC(=O)Nc2ccc(Nc3nc(C)cc(Nc4ccc(C)cc4)n3)cc2)cc1 [Compound 65]  904 nM
4. COc1ccccc1Cn1cc2c(-c3ccc(F)cc3)nnc-2c2cc(OC)c(OC)cc21 [Compound 31]  967 nM
5. Cc1ccc2nc(-c3ccccc3)c(CSc3cccc[n+]3[O-])n2c1 [Compound 16]  1270 nM
6. Cc1ccc(Nc2cc(C)nc(Nc3ccc(NC(=O)c4cc5ccccc5oc4=O)cc3)n2)cc1 [Compound 63]  1730 nM
7. OC(c1ccc(Cl)cc1)C1CCN(CCCN2CCC(C(O)c3ccc(Cl)cc3)CC2)CC1 (centres unmarked) [Compound 13]  1740 nM
8. COc1cc(CNCC2CCNCC2)ccc1OCc1cccc(Cl)c1 [Compound 53]  2360 nM
9. O=C(c1ccc([N+](=O)[O-])o1)N1CCC(Cn2cnc3ccccc32)CC1 [Compound 69]  6150 nM
